Data taken from patent US20160206688A1, “METHODS FOR TREATING BACTEREMIA AND OSTEOMYELITIS USING ORITAVANCIN” (THE MEDICINES COMPANY, priority 2013, published 2016).
Values after ≈ are worked out from the molar mass of the structure shown. Like-named read-outs stand apart in the source and are kept apart here.

Columns and labels:
[1] = test system: vancomycin-resistant enterococcal bacteremia; assay: Blood culture follow-up of compassionate use subject treated with oritavancin; assay type: in vivo, human
Procedure: In response to a compassionate use request, oritavancin was administered to a subject having bacteremia.
The demographics of the subject included the following: […]; […]; […]; weight—190 lb; height—70 inches. The subject's medical history included the following: CAD s/p CABG 8/08 (SVG to OM1, SVG to PDA); severe AS s/p bioprosthetic AVR 8/08; lumbar discectomy and fusion February 2011, hardware removed Jan. 11, 2013; PVD S/p bilateral CEA 2010; CKD s/p renal artery stenting December 2011, Baseline Cr approx 3.0 s; HTN; CHF; HLD; mild pulmonary fibrosis; BPH; GERD; arthritis.
The subject was diagnosed with: 1) vancomycin-resistant enterococcal bacteremia with intolerance of other antibiotics; and 2) possible spinal osteomyelitis.
Treatment as of Feb. 8, 2013: oritavancin (1200 mg IV, Q2D×3 times, then QW×5 times).
Last blood culture was Feb. 4, 2013 (negative). Attending physician will take blood sample for culture Feb. 11, 2013 and weekly thereafter.

S. aureus = assay: Broth microdilution MIC, European bacteraemia isolates 2010-2012; assay type: cell-based
Procedure: A total of 2,904 clinical strains responsible for documented bacteremia among unique hospitalized patients in 38 hospitals in 11 European Union countries. Israel, Russia, Turkey and Ukraine were included in this study (2010-2012). Isolates were submitted to a central monitoring laboratory (JMI Laboratories, North Liberty. Iowa. USA), following previously established protocols. Bacterial species identification was performed by using an automated system (Vitek®2; bioMèrieux, Hazelwood, Mo., USA) or conventional biochemical algorithms, as required.
Isolates were tested for susceptibility by broth microdilution methods following the Clinical and Laboratory Standards Institute (CLSI; M07-A9, 2012) document. Susceptibility testing was performed in cation-adjusted Mueller-Hinton broth (CA-MHB) using dry-form panels manufactured by Thermo Fisher Scientific, formerly TREK Diagnostics Systems/Sensititre (Cleveland. Ohio, USA). These panels provide results equivalent to the CLSI-approved broth microdilution method supplemented with 0.002% polysorbate-80.
Quality assurance was performed by concurrent testing of CLSI-recommended (M100-S23, 2013) strains: E. faecalis ATCC 29212 and S. aureus ATCC 29213. Interpretation of comparator MIC results was in accordance with published CLSI (M100-S23) and European Committee on Antimicrobial Susceptibility Testing (EUCAST, 2013) criteria.

[2] = S. aureus, Methicillin-Susceptible (1,126), at ≦0.008 mg/L
[3] = S. aureus, Methicillin-resistant (372), at ≦0.008 mg/L
[4] = S. aureus, Vancomycin MIC = 2 mg/L (19), at 0.015 mg/L
[5] = S. aureus, Vancomycin MIC = 2 mg/L (19), at 0.03 mg/L
[6] = S. aureus, Vancomycin MIC = 2 mg/L (19), at 0.06 mg/L
[7] = S. aureus, Vancomycin MIC = 2 mg/L (19), at 0.12 mg/L
[8] = Staphylococcus aureus, Table 1, S. aureus, Methicillin-Susceptible (1,126)
[9] = Staphylococcus aureus, Table 1, S. aureus, Methicillin-resistant (372)
[10] = Staphylococcus aureus, read-out: cumulative % inhibited at MIC

**Q.** What does the source list for `CN[C@H](CC(C)C)C(=O)N[C@H]1C(=O)N[C@@H](CC(N)=O)C(=O)N[C@H]2C(=O)N[C@H]3C(=O)N[C@H](C(=O)N[C@H](C(=O)O)c4cc(O)cc(O)c4-c4cc3ccc4O)[C@H](O[C@H]3C[C@](C)(N)[C@@H](O)[C@H](C)O3)c3ccc(c(Cl)c3)Oc3cc2cc(c3O[C@@H]2O[C@H](CO)[C@@H](O)[C@H](O)[C@H]2O[C@H]2C[C@](C)(NCc3ccc(-c4ccc(Cl)cc4)cc3)[C@@H](O)[C@H](C)O2)Oc2ccc(cc2Cl)[C@H]1O` [Oritavancin, N-(4-(4-chlorophenyl)benzyl)A82846B]?
**A.** blood culture ([1]; Feb. 11, 2013 sample, after two 1200 mg IV doses): negative; blood culture ([1]; samples taken Feb. 19, 2013, culture duration is 5 days): so far negative; activity relative to vancomycin or linezolid (S. aureus; MRSA strains, MIC50/90): 16- to 32 fold; potency relative to daptomycin (S. aureus; MRSA strains, MIC50/90): eight-fold; MIC50, MIC90 and modal MIC relative to strains with vancomycin MIC≦1 mg/L (S. aureus; S. aureus isolates with decreased susceptibility to vancomycin (MIC=2 mg/L)): two-fold higher; Number inhibited at MIC (S. aureus; S. aureus, Methicillin-Susceptible (1,126), at 0.015 mg/L): 247; Number inhibited at MIC (S. aureus; S. aureus, Methicillin-Susceptible (1,126), at 0.03 mg/L): 458; Number inhibited at MIC (S. aureus; S. aureus, Methicillin-Susceptible (1,126), at 0.06 mg/L): 297; Number inhibited at MIC (S. aureus; S. aureus, Methicillin-Susceptible (1,126), at 0.12 mg/L): 78; Number inhibited at MIC (S. aureus; S. aureus, Methicillin-Susceptible (1,126), at 0.25 mg/L): 18; Number inhibited at MIC (S. aureus; [2]): 28; cumulative % inhibited at MIC (S. aureus; [2]): 2.5%; Number inhibited at MIC (S. aureus; S. aureus, Methicillin-resistant (372), at 0.015 mg/L): 86; Number inhibited at MIC (S. aureus; S. aureus, Methicillin-resistant (372), at 0.03 mg/L): 180; Number inhibited at MIC (S. aureus; S. aureus, Methicillin-resistant (372), at 0.06 mg/L): 68; Number inhibited at MIC (S. aureus; S. aureus, Methicillin-resistant (372), at 0.12 mg/L): 27; Number inhibited at MIC (S. aureus; S. aureus, Methicillin-resistant (372), at 0.25 mg/L): 6; Number inhibited at MIC (S. aureus; [3]): 5; cumulative % inhibited at MIC (S. aureus; [3]): 1.3%; Number inhibited at MIC (S. aureus; [4]): 1; cumulative % inhibited at MIC (S. aureus; [4]): 5.3%; Number inhibited at MIC (S. aureus; [5]): 3; cumulative % inhibited at MIC (S. aureus; [5]): 21.1%; Number inhibited at MIC (S. aureus; [6]): 11; cumulative % inhibited at MIC (S. aureus; [6]): 78.9%; Number inhibited at MIC (S. aureus; [7]): 3; cumulative % inhibited at MIC (S. aureus; [7]): 94.7%; Number inhibited at MIC (S. aureus; S. aureus, Vancomycin MIC = 2 mg/L (19), at 0.25 mg/L): 1; Number inhibited at MIC (S. aureus; S. aureus, Vancomycin MIC = 2 mg/L (19), at ≦0.008 mg/L): 0; Number inhibited at MIC (S. aureus; S. aureus, Vancomycin MIC ≦1 mg/L (1,479), at 0.12 mg/L): 102; Number inhibited at MIC (S. aureus; S. aureus, Vancomycin MIC ≦1 mg/L (1,479), at 0.25 mg/L): 23; MIC50 (S. aureus; Staphylococcus aureus): 0.03 µg/mL (≈ 0.0167 µM); MIC90 (S. aureus; Staphylococcus aureus): 0.06 µg/mL (≈ 0.0335 µM); inhibition at 2 µg/mL (S. aureus; Staphylococcus aureus, S. aureus, Vancomycin MIC = 2 mg/L (19), at ≦0.008 mg/L, read-out: cumulative % inhibited at MIC): 0%; inhibition at 0.12 µg/mL (S. aureus; Staphylococcus aureus, S. aureus, Vancomycin MIC ≦1 mg/L (1,479), at 0.12 mg/L, read-out: cumulative % inhibited at MIC): 98.4%; inhibition at 0.25 µg/mL (S. aureus; Staphylococcus aureus, S. aureus, Vancomycin MIC ≦1 mg/L (1,479), at 0.25 mg/L, read-out: cumulative % inhibited at MIC): 100%; MIC50 (S. aureus; [8]): 0.03 µg/mL (≈ 0.0167 µM); MIC90 (S. aureus; [8]): 0.06 µg/mL (≈ 0.0335 µM); MIC50 (S. aureus; [9]): 0.03 µg/mL (≈ 0.0167 µM); MIC90 (S. aureus; [9]): 0.06 µg/mL (≈ 0.0335 µM); MIC50 (S. aureus; Staphylococcus aureus, Table 1, S. aureus, Vancomycin MIC = 2 mg/L (19), read-out: MIC 50%): 0.06 µg/mL (≈ 0.0335 µM); MIC90 (S. aureus; Staphylococcus aureus, Table 1, S. aureus, Vancomycin MIC = 2 mg/L (19), read-out: MIC 90%): 0.12 µg/mL (≈ 0.0669 µM); inhibition at 0.015 µg/mL (S. aureus; [10]): 24.7%; inhibition at 0.03 µg/mL (S. aureus; [10]): 67.6%; inhibition at 0.06 µg/mL (S. aureus; [10]): 91.5%; inhibition at 0.015 µg/mL (S. aureus; Staphylococcus aureus, read-out: cumulative % inhibited at MIC, S. aureus, Methicillin-Susceptible (1,126), at 0.015 mg/L): 24.4%; inhibition at 0.03 µg/mL (S. aureus; Staphylococcus aureus, read-out: cumulative % inhibited at MIC, S. aureus, Methicillin-Susceptible (1,126), at 0.03 mg/L): 65.1%; inhibition at 0.06 µg/mL (S. aureus; Staphylococcus aureus, read-out: cumulative % inhibited at MIC, S. aureus, Methicillin-Susceptible (1,126), at 0.06 mg/L): 91.5%; inhibition at 0.12 µg/mL (S. aureus; Staphylococcus aureus, read-out: cumulative % inhibited at MIC, S. aureus, Methicillin-Susceptible (1,126), at 0.12 mg/L): 98.4%; inhibition at 0.25 µg/mL (S. aureus; Staphylococcus aureus, read-out: cumulative % inhibited at MIC, S. aureus, Methicillin-Susceptible (1,126), at 0.25 mg/L): 100%; inhibition at 0.015 µg/mL (S. aureus; Staphylococcus aureus, read-out: cumulative % inhibited at MIC, S. aureus, Methicillin-resistant (372), at 0.015 mg/L): 24.5%; inhibition at 0.03 µg/mL (S. aureus; Staphylococcus aureus, read-out: cumulative % inhibited at MIC, S. aureus, Methicillin-resistant (372), at 0.03 mg/L): 72.9%; inhibition at 0.06 µg/mL (S. aureus; Staphylococcus aureus, read-out: cumulative % inhibited at MIC, S. aureus, Methicillin-resistant (372), at 0.06 mg/L): 91.1%
